This passage reports melting point results from patent US6410483B1, “Phenylsulfonylureas, processes for their preparation, and their use as herbicides and plant growth regulators” (Hoechst Schering AgrEvo GmbH, priority 1997, dated 2002).

As a reminder, the melting point is the temperature, or range, at which the solid turns liquid. In the case of `COC(=O)NCCc1ccc(C(=O)OC)c(S(=O)(=O)NC(=O)Nc2nc(OC)cc(OC)n2)c1` [Example A5, Methyl 2-[(4,6-Dimethoxypyrimidin-2-yl)aminocarbonylaminosulfonyl]-4-[2-(methoxycarbonylamino)ethyl]benzoate], the melting point is 165 to 169 °C (dec.).
